Experimental findings from patent EP0739882B1, “Novel aconitine compounds and analgesic/anti-inflammatory agent containing the same” (SANWA SHOYAKU KABUSHIKI KAISHA, priority 1991, dated 1993) are described below.

Where only a bound is given, the exact number is not on record here.

Series [1] is described as follows: Property and solubility (qualitative solubility in solvents). The class given is physicochemical. Conditions: for Solubility: solvents in which insoluble: hexane and water.
The subject of series [2] is Male mice of the Std:ddY Strain. Description: Analgesic activity by the acetic acid-induced writhing method. The class given is in vivo. Conditions: Mus musculus; test compound s.c. 30 minutes before 0.7 % acetic acid i.p.; writhing counted for 10 minutes; Litchfield-Wilcoxon; 95 % confidence limits in brackets. How it is done:
Experiment example 1 (Analgesic action)
Measurement of analgesic activity by the acetic acid-induced writhing method.
Male mice of the Std:ddY Strain (20 - 25g) were used. All mice were maintained at room temperature of 24 - 25 °C on a 12 hours light and dark cycle and were given food and water ad libitum. Test compound was used in 3 % suspension in gum arabic, 0.7 % acetic acid in 0.9 % physiological saline solution was injected i.p. (10ml / kg) at 30 minutes after test compound was administered s.c. After 10 minutes, the number of writhing movements was counted for a period of 10 minutes. 3 % gum arabic solution in 0.9 % physiological saline solution was used as a negative control. The ED50 values were calculated in accordance with the Litchfield-Wilcoxon's method based on judging to be positive in case of half and under the writhing number of negative control group.
(Writhing tests count abdominal constrictions after an irritant is injected.)

Series [3] can be described thus: Acute toxicity (LD50, s.c.). Conditions: mouse, in vivo, sc, mortality during 72 hours, Litchfield-Wilcoxon, read-out: LD50 value, mg/kg (95 % confidence limits). Also noted: species or system mice. The procedure: Experiment example 3 (Acute toxicity)
Male mice of the Std:ddY Strain (20 - 25g) were used. The LD50 values were calculated using the method of Litchfield-Wilcoxon from the mortality during 72 hours after test compound was administered s.c. The results are shown in Table 3.

Consider 3,8-dideoxy-14-O-m-chlorobenzoylaconine, for which, in series [1], the “Solubility: solvents in which soluble” value was “Soluble in ether, chloroform, benzene, ethanol, methanol, ethylacetate, pyridine and dimethyl sulfoxide”; the “Solubility: solvents in which insoluble” value is “Insoluble in hexane and water”.
As to “3,13-dideoxy-14-O-m-chlorobenzoylaconine”, in series [1], the “Solubility: solvents in which soluble” value was “Soluble in ether, chloroform, benzene, ethanol, methanol, ethylacetate, pyridine and dimethyl sulfoxide”; the “Solubility: solvents in which insoluble” value was “Insoluble in hexane and water”.
As for 3-deoxy-14-O-m-chlorobenzoylaconine, in series [1], the “Solubility: solvents in which soluble” value was “Soluble in ether, chloroform, benzene, ethanol, methanol, ethylacetate, pyridine and dimethyl sulfoxide”; the “Solubility: solvents in which insoluble” value was “Insoluble in hexane and water”.
14-O-m-chlorobenzoylaconine: in series [1], the “Solubility: solvents in which soluble” value is “Soluble in ether, chloroform, benzene, ethanol, methanol, ethylacetate, pyridine and dimethyl sulfoxide”; the “Solubility: solvents in which insoluble” value is “Insoluble in hexane and water”.
With `CCN1CC2(COC)CCC(OC)C34C5CC6C(OC)C(O)C(C5C6OC(=O)c5cccc(Cl)c5)C(C(OC)C23)C14` (stereo not shown) [3,8,13-trideoxy-14-O-m-chlorobenzoylaconine], in series [1], the “Solubility: solvents in which soluble” value is “Soluble in ether, chloroform, benzene, ethanol, methanol, ethylacetate, pyridine and dimethyl sulfoxide”; the “Solubility: solvents in which insoluble” value is “Insoluble in hexane and water”.
On to `CCN1CC2(COC)CCC(OC)C34C5CC6C(OC)C(=O)C(C5C6OC(=O)c5cccc(Cl)c5)C(C(OC)C23)C14` (stereo not drawn) [3,13-dideoxy-14-O-m-chlorobenzoyl-16-epi-pyroaconine], for which, in series [1], the “Solubility: solvents in which soluble” value is “Soluble in ether, chloroform, benzene, ethanol, methanol, ethylacetate, pyridine and dimethyl sulfoxide”; the “Solubility: solvents in which insoluble” value is “Insoluble in hexane and water”. The compound further showed an ED50 in series [2] of 11 mg/kg. Further, the LD50 at 72 h in series [3] was over 20 mg/kg.
`CCN1CC2(COC)CCC(OC)C34C5CC6(O)C(OC)C(=O)C(C5C6OC(=O)c5cccc(Cl)c5)C(C(OC)C23)C14` (stereo not drawn) [3-deoxy-14-O-m-chlorobenzoyl-16-epi-pyroaconine]: in series [1], the “Solubility: solvents in which soluble” value is “Soluble in ether, chloroform, benzene, ethanol, methanol, ethylacetate, pyridine and dimethyl sulfoxide”; the “Solubility: solvents in which insoluble” value is “Insoluble in hexane and water”. This compound also came in with an ED50 in series [2] of 10.1 mg/kg. In addition, in series [3], the LD50 at 72 h is over 20 mg/kg.
With `CCN1CC2(COC)C(O)CC(OC)C34C5CC6(O)C(OC)C(=O)C(C5C6OC(=O)c5cccc(Cl)c5)C(C(OC)C23)C14` (stereo not drawn) [14-O-m-chlorobenzoyl-16-epi-pyroaconine], in series [1], the “Solubility: solvents in which soluble” value was “Soluble in ether, chloroform, benzene, ethanol, methanol, ethylacetate, pyridine and dimethyl sulfoxide”; the “Solubility: solvents in which insoluble” value is “Insoluble in hexane and water”. The same compound returned an ED50 in series [2] of 11.9 mg/kg. For the same compound, in series [3], the LD50 at 72 h was over 20 mg/kg.
`CCN1CC2(COC)C(O)CC(OC)C34C5CC6(O)C(OC)C(O)C(O)(C5C6OC(=O)c5ccc(Br)cc5)C(C(OC)C23)C14` (stereo not shown) [14-O-p-bromobenzoylaconine]: in series [1], the “Solubility: solvents in which soluble” value was “Soluble in ether, chloroform, benzene, ethanol, methanol, acetone, ethylacetate, pyridine and dimethyl sulfoxide”; the “Solubility: solvents in which insoluble” value is “Insoluble in hexane and water”. The compound also returned an ED50 in series [2] of 6.42 mg/kg. For the same compound, in series [3], the LD50 at 72 h is over 30 mg/kg.
Regarding `COCC12CN(C)C3C4C(OC)C1C3(C(OC)CC2O)C1CC2(O)C(OC)C(O)C4(O)C1C2OC(=O)c1ccc(Cl)cc1` (stereo not shown) [14-O-p-chlorobenzoylmesaconine], in series [1], the “Solubility: solvents in which soluble” value was “Soluble in ether, chloroform, benzene, ethanol, methanol, acetone, ethylacetate, pyridine and dimethyl sulfoxide”; the “Solubility: solvents in which insoluble” value is “Insoluble in hexane and water”. It took a dose of 5.85 mg/kg to reach the 50% effect level in series [2] (ED50). In addition, the LD50 at 72 h in series [3] is over 30 mg/kg.
As to `CCN1CC2(COC)C(O)CC(OC)C34C5CC6(O)C(OC)C(O)C(O)(C5C6OC(=O)c5ccc(F)cc5)C(C(OC)C23)C14` (stereo not shown) [14-O-p-fluorobenzoylaconine], in series [1], the “Solubility: solvents in which soluble” value was “Soluble in ether, chloroform, benzene, ethanol, methanol, acetone, ethylacetate, pyridine and dimethyl sulfoxide”; the “Solubility: solvents in which insoluble” value is “Insoluble in hexane and water”. The compound further showed an ED50 in series [2] of 8.26 mg/kg. In addition, the LD50 at 72 h in series [3] is over 30 mg/kg.

As a reminder, the ED50 is the dose that gives a 50% effect, or the effect in half of the subjects.
